Reference: publication PMC5610936 (Biochemical pharmacology, 2017)
Read-outs that look alike come from different tables or passages of the source.

Columns and labels:
[1] = target: T1, NOX2 (Homo sapiens, UniProt P04839); experiment: PMA-induced superoxide anion luminescence assay, differentiated HL-60 cells; type: cell-based
[2] = system: HT-29 cells; experiment: Intracellular ROS by flow cytometry with CM-H2-DCF-DA; type: cell-based, human; conditions: 24 h; for change in DCF fluorescence (intracellular ROS) vs vehicle: 50 nM; for intracellular ROS (DCF) after high concentration: 500 nM
[3] = target: T1, NOX2; experiment: PMA-induced superoxide anion luminescence assay, PMNs; type: cell-based
[4] = system: HT-29 cells; experiment: Seahorse oxygen consumption rate / extracellular acidification rate; type: cell-based, human
[5] = system: HT-29 cells; experiment: Colony formation; type: cell-based, human
[6] = system: HT-29 cells; experiment: MTT cell growth assay; type: cell-based, human; conditions: for 50% growth inhibition of HT-29 cells reached within 72 h: 100 nM, time course up to 72 h; for IC50: Homo sapiens, HT-29, 72 h, read-out: IC50 inhibition of HT-29 cell proliferation
[7] = system: HT-29 cells
[8] = system: HT-29 cells; experiment: HT-29 cell growth by cell counting after SOD/catalase; type: cell-based, human; conditions: 96 h, 0-2000 U/ml, significant at ≥ 500 U/ml
[9] = Homo sapiens, HT-29, 1 h, read-out: 60-min treatment IC50, cellular respiration (OCR), HT-29, 60 min
[10] = Homo sapiens, HT-29, 24 h, read-out: 24-h treatment IC50, cellular respiration (OCR), HT-29, 24 h
[11] = read-out: 24-h treatment IC50, cellular respiration (OCR), HT-29, 24 h
[12] = Homo sapiens, HT-29, 240 h, read-out: 10-day treatment IC50, colony formation
[13] = Homo sapiens, HT-29, read-out: 2-h treatment IC50, colony formation
[14] = ratio of NOX2 IC50 values, PMN vs HL-60
[15] = read-out: 30-min treatment IC50, cellular respiration (OCR), HT-29, 30 min
[16] = read-out: 60-min treatment IC50, cellular respiration (OCR), HT-29, 60 min
[17] = read-out: 10-day treatment IC50, colony formation, HT-29, 10-day exposure
[18] = Homo sapiens, HT-29, 1 h, read-out: 60-min treatment IC50, cellular respiration (OCR)
[19] = Homo sapiens, HT-29, 24 h, read-out: 24-h treatment IC50, cellular respiration (OCR)

In the case of `O=[N+]([O-])c1ccc2c(c1)[I+]c1cc([N+](=O)[O-])ccc1-2.[Br-]` [compound 392, Dibenziodolium, 3,7-dinitro-, bromide], the “fold more potent in HL-60 leukemia line compared to PMNs” value (shortened to “fold more potent in HL-60 leukemia line”) [1] is reported as 2- to 5 fold, the “change in DCF fluorescence (intracellular ROS) vs vehicle” value (shortened to “change in DCF fluorescence”) [2] is reported as “left-shift (decrease) in DCF fluorescence” and the “intracellular ROS (DCF) after high concentration” value (from here on “intracellular ROS (DCF)”) [2] is reported as “did not demonstrate this effect”. For the same molecule, the IC50 [3] was 850 ± 197 nM, the “effect on cellular metabolic activity (OCR/ECAR)” value ([4]; 24 h, concentrations ≤ 316 nM) was “no adverse effects” and the IC50 [4, 9] was 2180 nM. For the same molecule, the IC50 [4, 10] was ~800 nM, the IC50 [4, 11] was 801 ± 194 nM and the IC50 [5, 12] was 27 ± 28 nM.

In the case of `O=[N+]([O-])c1ccc2c(c1)[I+]c1ccccc1-2.[Cl-]` [compound 428, Dibenz[b,d]iodolium, 3-nitro-, chloride], the “change in DCF fluorescence” value [2] is reported as “left-shift (decrease) in DCF fluorescence”, the “intracellular ROS (DCF)” value [2] is reported as “increases in intracellular ROS” and the “50% growth inhibition of HT-29 cells reached within 72 h” value [6] is reported as “achieved 50% growth inhibition”. It also gave an IC50 [4, 9] of 211 ± 33 nM, an IC50 [4, 10] of 45 ± 23 nM and an IC50 [5, 12] of 11 ± 6 nM. The IC50 [5, 13] was 77 ± 12 nM and the IC50 ([5]; Homo sapiens, HT-29, read-out: 6-h treatment IC50, colony formation) was 29 ± 23 nM.

In the case of `COC(=O)c1ccc2c(c1)[I+]c1ccccc1-2.Cc1ccc(S(=O)(=O)[O-])cc1` [compound 140, Dibenz[b,d]iodolium, 3-(methoxycarbonyl)-, salt with 4-methyl-benzenesulfonic acid (1:1)], the “fold more potent in HL-60 leukemia line” value [1, 14] is reported as 2- to 5 fold, the “intracellular ROS (DCF)” value [2] is reported as “did not demonstrate this effect” and the IC50 [4, 11] is reported as 76 ± 21 nM. It also gave an IC50 [4, 15] of 678 ± 201 nM, an IC50 [4, 16] of 475 ± 116 nM and an IC50 [5, 17] of 40 ± 32 nM.

`c1ccc2c(c1)[I+]c1ccccc1-2` [DPI, Diphenylene iodonium, reference compound] was tested, and the “change in DCF fluorescence” value [2] was “left-shift (decrease) in DCF fluorescence”, the “intracellular ROS (DCF)” value [2] was “increases in intracellular ROS” and the IC50 [6] was ~450 nM. The “decrease in oxygen consumption” value ([4]; 2 μM, immediate effect) was 80%, the “concentration at which ECAR increased” value ([4]; HT-29, 24-h treatment) was 316 nM and the “concentration at which OCR began to decrease” value ([4]; HT-29, 24-h treatment) was 31.6 nM. The IC50 [4, 18] was 4570 nM, the IC50 [4, 19] was 200 ± 245 nM and the IC50 [5, 12] was 39 ± 23 nM. The IC50 [5, 13] was 9260 nM, the “effect on mitochondrial ROS production (MitoSox)” value ([7]; 1 μM, 2 h) was “right shift in MitoSox fluorescence” and the “effect on mitochondrial ROS production (MitoSox)” value ([7]; concentrations ≤ 200 nM, 24 h) was “no effect”.

In the case of `Brc1ccc2c(c1)[I+]c1cc(Br)ccc1-2.[Br-]` [compound 104, Dibenziodolium, 3,7-dibromo-, bromide], the “fold more potent in HL-60 leukemia line” value [1, 14] is reported as 2- to 5 fold, the “change in DCF fluorescence” value [2] is reported as “left-shift (decrease) in DCF fluorescence” and the “intracellular ROS (DCF)” value [2] is reported as “did not demonstrate this effect”. The “50% growth inhibition of HT-29 cells reached within 72 h” value [6] was “achieved 50% growth inhibition”, the IC50 [6] was 150 to 250 nM and the IC50 [3] was 481 ± 44 nM. The IC50 [4, 18] was 1470 nM, the IC50 [4, 19] was 74 ± 54 nM and the IC50 [5, 12] was 9 ± 2 nM. It also gave an IC50 [5, 13] of 1220 nM.

For `O=[N+]([O-])c1cccc2c1-c1c(cccc1[N+](=O)[O-])[I+]2.[Br-]` [compound 521, Dibenziodolium, 1,9-dinitro-, salt with bromide (1:1)], the “24-h treatment IC50, cellular respiration (OCR)” value ([4]; HT-29, 24 h) was “No effect”, the IC50 [4, 15] was 1670 nM and the IC50 [4, 16] was 1000 nM. For the same molecule, the IC50 [5, 17] was 488 ± 101 nM.

B1: catalase: ROS detoxifying enzyme, human catalase (Sigma Aldrich) (protein, UniProt P04040 2-527, looked up)
Catalase: ADSRDPASDQMQHWKEQRAAQKADVLTTGAGNPVGDKLNVITVGPRGPLLVQDVVFTDEMAHFDRERIPERVVHAKGAGAFGYFEVTHDITKYSKAKVFEHIGKKTPIAVRFSTVAGESGSADTVRDPRGFAVKFYTEDGNWDLVGNNTPIFFIRDPILFPSFIHSQKRNPQTHLKDPDMVWDFWSLRPESLHQVSFLFSDRGIPDGHRHMNGYGSHTFKLVNANGEAVYCKFHYKTDQGIKNLSVEDAARLSQEDPDYGIRDLFNAIATGKYPSWTFYIQVMTFNQAETFPFNPFDLTKVWPHKDYPLIPVGKLVLNRNPVNYFAEVEQIAFDPSNMPPGIEASPDKMLQGRLFAYPDTHRHRLGPNYLHIPVNCPYRARVANYQRDGPMCMQDNQGGAPNYYPNSFGAPEQQPSALEHSIQYSGEVRRFNTANDDNVTQVRAFYVNVLNEEQRKRLCENIAGHLKDAQIFIQKKAVKNFTEVHPDYGSHIQALLDKYNAEKPKNAIHTFVQSGSHLAAREKANL
With B1 the “effect on proliferation of HT-29 cells vs control-treated cells” value [8] was “reduced the proliferation”.
